Reference: ChEMBL document CHEMBL1127341, “Synthesis and biological evaluation of 5-[[3,5-bis(1,1-dimethylethyl)- 4-hydroxyphenyl]methylene]oxazoles, -thiazoles, and -imidazoles: novel dual 5-lipoxygenase and cyclooxygenase inhibitors with antiinflammatory activity” (J Med Chem, 1994)
Calls of active or inactive are those of the source. No cut-off for these calls is given here.

Tests used:
[1] = target: T1, Polyunsaturated fatty acid 5-lipoxygenase (Rattus norvegicus) (UniProt P12527); assay: Inhibitory activity at 10 uM against 5-lipoxygenase in intact rat basophilic leukemia cells stimulated with the calcium ionophore A-23187; format: cell-based; conditions: RBL-1
T1 sequence (whole entry): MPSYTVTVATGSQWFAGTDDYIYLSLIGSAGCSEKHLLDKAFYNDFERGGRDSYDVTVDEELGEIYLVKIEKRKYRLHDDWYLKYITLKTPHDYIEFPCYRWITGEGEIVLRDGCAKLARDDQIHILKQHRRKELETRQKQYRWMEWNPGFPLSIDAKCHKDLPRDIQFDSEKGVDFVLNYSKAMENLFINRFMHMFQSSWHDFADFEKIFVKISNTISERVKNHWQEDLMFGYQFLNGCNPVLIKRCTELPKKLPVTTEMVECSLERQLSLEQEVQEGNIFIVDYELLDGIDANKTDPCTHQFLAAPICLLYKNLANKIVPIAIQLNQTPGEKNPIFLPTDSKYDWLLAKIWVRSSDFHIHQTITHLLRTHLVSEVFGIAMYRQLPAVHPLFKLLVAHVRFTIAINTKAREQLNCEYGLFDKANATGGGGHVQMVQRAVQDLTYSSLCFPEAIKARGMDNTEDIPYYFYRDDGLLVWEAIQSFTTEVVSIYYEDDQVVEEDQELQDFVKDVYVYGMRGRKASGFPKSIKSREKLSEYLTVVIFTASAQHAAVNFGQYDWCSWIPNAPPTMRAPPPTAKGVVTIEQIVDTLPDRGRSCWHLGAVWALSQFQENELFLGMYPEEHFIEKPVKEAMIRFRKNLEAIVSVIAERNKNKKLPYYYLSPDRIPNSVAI

Rattus norvegicus [2] = assay: 40% inhibition of induced edema in the rat mycobacterium foot-pad edema test; format: functional
Cyclooxygenase = target: T2, Cyclooxygenase (Rattus norvegicus, UniProt P35355+Q63921); conditions: rbl-1
T2 sequence (P35355 whole entry): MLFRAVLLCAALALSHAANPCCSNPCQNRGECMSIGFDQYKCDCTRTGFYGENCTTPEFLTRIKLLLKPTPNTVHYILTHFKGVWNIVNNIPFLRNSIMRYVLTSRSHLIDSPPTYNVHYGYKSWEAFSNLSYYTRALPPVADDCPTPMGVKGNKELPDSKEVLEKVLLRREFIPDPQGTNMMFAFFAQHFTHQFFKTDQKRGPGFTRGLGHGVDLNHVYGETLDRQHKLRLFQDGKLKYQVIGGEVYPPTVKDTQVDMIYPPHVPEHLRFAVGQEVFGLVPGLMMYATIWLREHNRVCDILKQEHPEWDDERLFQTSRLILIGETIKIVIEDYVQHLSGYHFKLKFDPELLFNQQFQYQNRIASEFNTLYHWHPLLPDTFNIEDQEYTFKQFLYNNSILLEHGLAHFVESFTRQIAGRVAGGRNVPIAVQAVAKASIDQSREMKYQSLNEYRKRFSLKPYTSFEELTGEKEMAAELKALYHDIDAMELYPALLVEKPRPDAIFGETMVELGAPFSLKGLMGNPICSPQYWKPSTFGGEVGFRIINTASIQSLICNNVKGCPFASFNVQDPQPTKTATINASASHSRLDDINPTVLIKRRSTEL
T2 sequence (Q63921 whole entry): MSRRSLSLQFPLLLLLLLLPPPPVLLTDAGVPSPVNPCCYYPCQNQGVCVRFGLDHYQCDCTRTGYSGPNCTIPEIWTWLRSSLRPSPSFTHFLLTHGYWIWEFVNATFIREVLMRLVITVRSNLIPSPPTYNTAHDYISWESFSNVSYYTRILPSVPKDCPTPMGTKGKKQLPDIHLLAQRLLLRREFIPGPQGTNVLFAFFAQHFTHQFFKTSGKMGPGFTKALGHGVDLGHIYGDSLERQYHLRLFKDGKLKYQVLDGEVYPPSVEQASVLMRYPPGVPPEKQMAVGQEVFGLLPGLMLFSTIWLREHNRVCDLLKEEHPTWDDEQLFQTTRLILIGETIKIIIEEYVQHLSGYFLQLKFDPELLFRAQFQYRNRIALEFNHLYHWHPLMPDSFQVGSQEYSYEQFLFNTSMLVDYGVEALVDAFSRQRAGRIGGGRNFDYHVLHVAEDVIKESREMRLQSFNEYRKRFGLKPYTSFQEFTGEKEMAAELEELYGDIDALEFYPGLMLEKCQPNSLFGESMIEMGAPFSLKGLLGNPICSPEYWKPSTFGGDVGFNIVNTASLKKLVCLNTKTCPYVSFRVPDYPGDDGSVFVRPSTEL
Description: Inhibition of prostaglandin G/H synthase in intact rat basophilic leukemia cells stimulated with the calcium ionophore A-23187

Rattus norvegicus [3] = assay: Inhibition of rat carrageenan induced foot-pad edema at a dose of 10 mg/kg on peroral administration; conditions: po, read-out: Inhibition
[4] = target: T3, Polyunsaturated fatty acid 5-lipoxygenase (Rattus norvegicus, UniProt P12527)
T3 sequence (P12527 whole entry): T1 sequence (whole entry)

Rattus norvegicus [5] = assay: Inhibition of rat carrageenan induced foot-pad edema at a dose of 30 mg/kg on peroral administration; conditions: po, read-out: Inhibition
Rattus norvegicus [6] = assay: 40% inhibition of induced edema in the rat mycobacterium foot-pad edema test; Inactive(N)= <30% inhibition at a dose of 10 mg/kg po; format: functional, organism-based; set-up: dose 10 mg/kg
Rattus norvegicus [7] = assay: Inhibition of rat carrageenan induced foot-pad edema at a dose of 30 mg/kg on peroral administration; N=Inactive; format: functional, organism-based; set-up: dose 30 mg/kg
Rattus norvegicus [8] = assay: Inhibition of rat carrageenan induced foot-pad edema at a dose of 30 mg/kg on peroral administration; Inactive(N)= <25% inhibition at a dose of 30 mg/kg po; format: functional, organism-based
[9] = target: T1, Polyunsaturated fatty acid 5-lipoxygenase (Rattus norvegicus); assay: Inhibitory activity against 5-lipoxygenase in intact rat basophilic leukemia cells stimulated with the calcium ionophore A-23187; format: cell-based; conditions: RBL-1; concentration not given here
[10] = target: T3, Polyunsaturated fatty acid 5-lipoxygenase; assay: Inhibitory activity against 5-lipoxygenase in intact rat basophilic leukemia cells stimulated with the calcium ionophore A-23187; Inactive(N)= <50% inhibition at 10 uM; format: cell-based; conditions: rbl-1
[11] = target: T3, Polyunsaturated fatty acid 5-lipoxygenase; assay: Inhibitory activity against 5-lipoxygenase in intact rat basophilic leukemia cells stimulated with the calcium ionophore A-23187; N=Inactive; format: cell-based; conditions: rbl-1
Rattus norvegicus [12] = assay: 40% inhibition of induced edema in the rat mycobacterium foot-pad edema test; N=Inactive; format: functional, organism-based
[13] = target: T4, Cyclooxygenase (Rattus norvegicus) (UniProt P35355+Q63921); assay: Inhibitory activity against Prostaglandin G/H synthase in intact rat basophilic leukemia cells stimulated with the calcium ionophore A-23187 at 10 uM; format: cell-based; conditions: RBL-1
[14] = target: T4, Cyclooxygenase (Rattus norvegicus); assay: Inhibitory activity at 10 uM against Prostaglandin G/H synthase in intact rat basophilic leukemia cells stimulated with the calcium ionophore A-23187; format: cell-based; conditions: RBL-1
[15] = target: T1, Polyunsaturated fatty acid 5-lipoxygenase (Rattus norvegicus); assay: Inhibitory activity at 1 uM against 5-lipoxygenase in intact rat basophilic leukemia cells stimulated with the calcium ionophore A-23187; format: cell-based; conditions: RBL-1

Structure (SMILES) | IC50 (Cyclooxygenase) [nM] | inhibition in vivo at 10 mg/kg (Rattus norvegicus [3]) [%] | IC50 [4] [nM] | inhibition in vivo at 30 mg/kg (Rattus norvegicus [5]) [%] | other results
CC(C)(C)c1cc(/C=C2\SC(NCCCC(=O)O)=NC2=O)cc(C(C)(C)C)c1O | – | – | – | – | inhibition [1]: 53%
CC(C)(C)c1cc(/C=C2\SC(N=C(N)N)=NC2=O)cc(C(C)(C)C)c1O | 83 | 34 | 910 | 40 | ID40 (Rattus norvegicus [2]): 2.2 mg/kg
O=C1NC(=O)/C(=C/c2cc(-c3ccccc3)c(O)c(-c3ccccc3)c2)S1 | 9600 | 11 | 160 | 41 | ID40 (Rattus norvegicus [6]): inactive
CC(C)(C)c1cc(/C=C2\OC(N=C(N)N)=NC2=O)cc(C(C)(C)C)c1O.CS(=O)(=O)O | 340 | 33 | 1200 | 48 | ID40 (Rattus norvegicus [2]): 5.7 mg/kg
C/C(=C1/SC(N=C(N)N)=NC1=O)c1cc(C(C)(C)C)c(O)c(C(C)(C)C)c1 | 1900 | – | 1600 | – | inhibition (Rattus norvegicus [7]): inactive
CN(O)C1=NC(=O)/C(=C/c2cc(C(C)(C)C)c(O)c(C(C)(C)C)c2)S1 [listing 1 of 2 here] | 10000 | – | 7300 | – | –
CC(C)(C)c1cc(/C=C2\SC(NO)=NC2=O)cc(C(C)(C)C)c1O | 800 | – | 3700 | – | inhibition (Rattus norvegicus [7]): inactive
CN1C(NC(=N)N)=NC(=O)/C1=C/c1cc(C(C)(C)C)c(O)c(C(C)(C)C)c1 | 2100 | – | 1300 | – | inhibition (Rattus norvegicus [7]): inactive
CC(C)(C)c1cc(/C=C2\OC(=S)NC2=O)cc(C(C)(C)C)c1O | 1700 | 32 | 840 | 40 | ID40 (Rattus norvegicus [2]): 12.4 mg/kg
CN1C(=O)NC(=O)/C1=C/c1cc(C(C)(C)C)c(O)c(C(C)(C)C)c1 | 4600 | – | 780 | – | inhibition (Rattus norvegicus [8]): inactive
CON1CC/C(=C\c2cc(C(C)(C)C)c(O)c(C(C)(C)C)c2)C1=O [E-5110] | – | – | – | – | ID40 (Rattus norvegicus [2]): 1.9 mg/kg
CC(C)(C)c1cc(/C=C2\SC(=O)NC2=O)cc(C(C)(C)C)c1 | 4600 | – | 3300 | – | inhibition (Rattus norvegicus [7]): inactive
C/C(=C1/SC(NC#N)=NC1=O)c1cc(C(C)(C)C)c(O)c(C(C)(C)C)c1 | 5100 | – | 1200 | – | inhibition (Rattus norvegicus [7]): inactive
CN(C)C1=NC(=O)/C(=C/c2cc(C(C)(C)C)c(O)c(C(C)(C)C)c2)S1 | – | – | – | – | inhibition [9]: 65%
CNC1=NC(=O)/C(=C/c2cc(C(C)(C)C)c(O)c(C(C)(C)C)c2)S1 | – | – | – | – | IC50 [10]: Inactive
CONC1=NC(=O)/C(=C/c2cc(C(C)(C)C)c(O)c(C(C)(C)C)c2)S1 | – | – | – | – | IC50 [11]: Not Active
CC(C)(C)c1cc(/C=C2\SC(=N)NC2=O)cc(C(C)(C)C)c1O.CS(=O)(=O)O [DARBUFELONE MESYLATE] | 390 | 52 | 770 | 61 | ID40 (Rattus norvegicus [2]): 0.6 mg/kg
CC(C)(C)c1cc(/C=C2\SC(=S)NC2=O)cc(C(C)(C)C)c1O | 12 | 32 | 380 | 36 | –

Structure (SMILES) | IC50 (Cyclooxygenase) [nM] | inhibition in vivo at 10 mg/kg (Rattus norvegicus [3]) [%] | IC50 [4] [nM] | inhibition in vivo at 30 mg/kg (Rattus norvegicus [5]) [%] | other results
CN(O)C1=NC(=O)/C(=C/c2cc(C(C)(C)C)c(O)c(C(C)(C)C)c2)S1 [listing 2 of 2 here] | – | – | – | – | inhibition (Rattus norvegicus [7]): inactive
CN(C)CCNC1=NC(=O)/C(=C/c2cc(C(C)(C)C)c(O)c(C(C)(C)C)c2)S1 | – | – | – | – | inhibition [1]: 79%
CSC1=NC(=O)/C(=C/c2cc(C(C)(C)C)c(O)c(C(C)(C)C)c2)S1 | 600 | 36 | 650 | 47 | ID40 (Rattus norvegicus [12]): inactive
CC(C)(C)c1cc(/C=C2\CCOC2=O)cc(C(C)(C)C)c1O | – | 17 | – | 28 | ID40 (Rattus norvegicus [2]): 3.7 mg/kg
CC(C)(C)c1cc(/C=C2\OC(=O)NC2=O)cc(C(C)(C)C)c1O | 650 | 35 | 2800 | 51 | ID40 (Rattus norvegicus [2]): 3.7 mg/kg
CC(C)c1cc(/C=C2\SC(=O)NC2=O)cc(C(C)C)c1O | 820 | – | 220 | – | ID40 (Rattus norvegicus [12]): inactive
CC(C)(C)c1cc(/C=C2\OC(NC#N)=NC2=O)cc(C(C)(C)C)c1O | 1100 | – | 2600 | – | inhibition (Rattus norvegicus [7]): inactive
O=C1NC(=O)/C(=C/c2ccc(O)cc2)S1 | – | – | – | – | IC50 [11]: Not Active
C/C(=C1/SC(=O)NC1=O)c1cc(C(C)(C)C)c(O)c(C(C)(C)C)c1 | – | – | 480 | – | inhibition [13]: 52%
CC(C)(C)c1cc(/C=C2\CC(=S)NC2=O)cc(C(C)(C)C)c1O | 2400 | 19 | 1700 | 39 | ID40 (Rattus norvegicus [6]): inactive
C/C(=C1/SC(=S)NC1=O)c1cc(C(C)(C)C)c(O)c(C(C)(C)C)c1 | 4500 | – | 2300 | – | inhibition (Rattus norvegicus [8]): inactive
CN1C(=S)NC(=O)/C1=C/c1cc(C(C)(C)C)c(O)c(C(C)(C)C)c1 | 790 | – | 170 | – | inhibition (Rattus norvegicus [7]): inactive
CN1C(NC#N)=NC(=O)/C1=C/c1cc(C(C)(C)C)c(O)c(C(C)(C)C)c1 | 3500 | – | 700 | – | inhibition (Rattus norvegicus [7]): inactive
CN(O)C1=NC(=O)/C(=C/c2cc(C(C)(C)C)c(O)c(C(C)(C)C)c2)S1.Cl | 330 | – | 1700 | – | ID40 (Rattus norvegicus [2]): 6.2 mg/kg
O=C1NC(=O)/C(=C/c2cc(I)c(O)c(I)c2)S1 | – | – | – | – | IC50 [10]: Inactive; inhibition [14]: 60%
CC(C)(C)c1cc(/C=C2\SC(=O)NC2=O)cc(C(C)(C)C)c1O | 350 | 54 | – | 59 | ID40 (Rattus norvegicus [2]): 2 mg/kg
CC(C)(C)c1cc(/C=C2\SC(NC#N)=NC2=O)cc(C(C)(C)C)c1O | 160 | 29 | 630 | 49 | ID40 (Rattus norvegicus [12]): inactive
CN(C)C(=N)NC1=NC(=O)/C(=C/c2cc(C(C)(C)C)c(O)c(C(C)(C)C)c2)S1 | – | – | – | – | inhibition [15]: 100%
